Data on 67 compounds can be found in paper doi:10.1101/2021.10.07.463234v2 (biorxiv, 2021).

Where a name gives a salt, the structure may show the parent alone.

The first experiment addresses SARS-CoV-2 Mac1 (Severe acute respiratory syndrome coronavirus 2, UniProt P0DTD1). The experiment in a line: biochemical. Particulars: 100 µM; inhibitor.
In general, %inhibition refers to the change of the read-out against control, counted positive when it falls. With `CC1CNc2c(cccc2S(=O)(=O)N[C@@H](CCCNC(=N)N)C(=O)N2CC[C@@H](C)C[C@@H]2C(=O)O)C1` (stereo partly shown) [Argatroban Monohydrate], the “%inhibition” value turned out to be 0%.

Consider `C=C1[C@H](CO)[C@@H](O)C[C@@H]1n1cnc2c(=O)[nH]c(N)nc21` [Entecavir], for which the “%inhibition” value amounted to 0%.

Consider `CCCN[C@H]1CCc2nc(N)sc2C1` [Pramipexole dihydrochloride], for which the “%inhibition” value was found to be 10.17%.

`CCOc1ccc(Cc2cc([C@@H]3O[C@H](CO)[C@@H](O)[C@H](O)[C@H]3O)ccc2Cl)cc1` [Dapagliflozin propanediol monohydrate]: the “%inhibition” value is listed as 0%.

Consider `CC(=O)NS(=O)(=O)c1ccc(N)cc1` [Sulfacetamide sodium salt hydrate], for which the “%inhibition” value came to 8.356%.

For the compound `CCOc1ccc(Cc2cc([C@@H]3O[C@H](CO)[C@@H](O)[C@H](O)[C@H]3O)ccc2Cl)cc1` [Dapagliflozin], the “%inhibition” value amounted to 1.439%.

As to `COc1ccccc1OCC(O)CN1CCN(CC(=O)Nc2c(C)cccc2C)CC1` (stereo not shown) [Ranolazine 2HCl], the “%inhibition” value was found to be 0%.

`O=C(O)/C=C/c1ccc(Cn2ccnc2)cc1` [Ozagrel HCl]: the “%inhibition” value was determined as 0%.

The same experiment, now with this note: read-out: %inhibition.
For orientation: inhibition means the relative decrease from the control value, in per cent. Regarding `CCCNC(C)C(=O)Nc1ccccc1C` (stereo not shown) [Prilocaine hydrochloride], the inhibition at 100 µM came to 0%.

For the compound `C[C@H](N)[C@H](O)c1cccc(O)c1` [Metaraminol Bitartrate], the inhibition at 100 µM was 8.05%.

As for `CC(=O)Oc1c(C)c(C)c2c(c1C)CCC(C)(CCC[C@H](C)CCC[C@H](C)CCCC(C)C)O2` (stereo partly shown) [Vitamin E Acetate], the inhibition at 100 µM was 0%.

With `CC(C(=O)O)c1ccc2c(c1)[nH]c1ccc(Cl)cc12` (stereo not shown) [Carprofen], the inhibition at 100 µM amounted to 0%.

For `O=C(O)CSCC(=O)NC1CCSC1=O` (stereo not shown) [Erdosteine], the inhibition at 100 µM stood at 12.3%.

For `Cn1ccnc1S` [Methimazole], the inhibition at 100 µM turned out to be 0%.

Turning to `Cn1ncc(Cl)c1-c1cc(C(=O)N[C@H](CN)Cc2ccc(F)c(F)c2)oc1Cl` [Uprosertib (GSK2141795)], the inhibition at 100 µM turned out to be 0%.

As for `CN(C)CCn1nnnc1SCC1=C(C(=O)O)N2C(=O)[C@@H](NC(=O)Cc3csc(N)n3)[C@H]2SC1` [Cefotiam hydrochloride], the inhibition at 100 µM came to 23.3%.

`Cn1nnc(-c2ccc(-c3ccc(N4C[C@H](COP(=O)(O)O)OC4=O)cc3F)cn2)n1` [Tedizolid Phosphate]: the inhibition at 100 µM came out at 0%.

In the case of `O=C(O)CCCC[C@@H]1SC[C@@H]2NC(=O)N[C@@H]21` [Biotin (Vitamin B7)], the inhibition at 100 µM was 0%.

Take `Cc1c(O)c(=O)ccn1C` [Deferiprone]: the inhibition at 100 µM is 0%.

For the compound `CC1=Nc2ccc(Cl)cc2S(=O)(=O)N1` [Diazoxide], the inhibition at 100 µM was determined as 0%.

For `C[C@]1(COc2ccc(N3CCC(Oc4ccc(OC(F)(F)F)cc4)CC3)cc2)Cn2cc([N+](=O)[O-])nc2O1` [Delamanid], the inhibition at 100 µM worked out at 22.1%.

As to `CC1(C)S[C@@H]2[C@H](NC(=O)[C@H](C(=O)O)c3ccsc3)C(=O)N2[C@H]1C(=O)O` [Ticarcillin sodium], the inhibition at 100 µM amounted to 7.19%.

Consider `CN1CCC(=C2c3ccccc3CCn3c(C=O)cnc32)CC1` [Alcaftadine], for which the inhibition at 100 µM is 0%.

In the case of `C[C@@H]1C[C@H]2[C@@H]3C[C@H](F)C4=CC(=O)C=C[C@]4(C)[C@@]3(F)[C@@H](O)C[C@]2(C)[C@@]1(O)C(=O)CO` [Flumethasone], the inhibition at 100 µM came out at 28.1%.

In the case of `Cc1cccc(C)c1OCC(C)N` (stereo not shown) [Mexiletine HCl], the inhibition at 100 µM was 9.05%.

Turning to `O=C1c2ccccc2C(=O)C1c1ccccc1` [Phenindione], the inhibition at 100 µM came to 28.8%.

On to `O=C1C(O)=C([C@H]2CC[C@H](c3ccc(Cl)cc3)CC2)C(=O)c2ccccc21` [Atovaquone], for which the inhibition at 100 µM is 23.4%.

Turning to `CCCN(CCC)C(=O)C1=Cc2ccc(-c3ccc(C(=O)N4CCCC4)cc3)cc2N=C(N)C1` [Motolimod (VTX-2337)], the inhibition at 100 µM came out at 0%.

On to `CO[C@@]12[C@H](COC(N)=O)C3=C(C(=O)C(C)=C(N)C3=O)N1C[C@@H]1N[C@@H]12` [Mitomycin C], for which the inhibition at 100 µM is 10.1%.

Take `N[C@H]1C(O)O[C@H](CO)[C@@H](O)[C@@H]1O` (stereo partly shown) [Glucosamine hydrochloride]: the inhibition at 100 µM worked out at 0%.

With `CCOC(=O)c1ccc(O)cc1` [Ethylparaben], the inhibition at 100 µM came out at 2.11%.

For `Cc1onc(-c2c(Cl)cccc2Cl)c1C(=O)N[C@@H]1C(=O)N2[C@@H]1SC(C)(C)[C@@H]2C(=O)O` [Dicloxacillin Sodium], the inhibition at 100 µM is 10.8%.

`O=c1cccc2n1C[C@@H]1CNC[C@H]2C1` [Cytisine]: the inhibition at 100 µM turned out to be 0%.

In the case of `C=CC[N+]1([C@H]2C[C@H]3[C@@H]4CC[C@H]5C[C@H](O)[C@@H](N6CCOCC6)C[C@]5(C)[C@H]4CC[C@]3(C)[C@H]2OC(C)=O)CCCC1` [Rocuronium Bromide], the inhibition at 100 µM turned out to be 0%.

On to `Cc1cc(-c2ccccc2)nnc1NCCN1CCOCC1` [Minaprine dihydrochloride], for which the inhibition at 100 µM was found to be 2.13%.

As to `CC(C)(O/N=C(\C(=O)N[C@@H]1C(=O)N2C(C(=O)[O-])=C(C[n+]3ccccc3)CS[C@H]12)c1csc(N)n1)C(=O)O` [Ceftazidime Pentahydrate], the inhibition at 100 µM was 0%.

With `CN[C@@H]1[C@H](O)[C@H](NC)[C@H]2O[C@@]3(O)C(=O)C[C@@H](C)O[C@H]3O[C@@H]2[C@H]1O` [Spectinomycin 2HCl], the inhibition at 100 µM was determined as 11.7%.

For `Nc1ccc(S(N)(=O)=O)cc1` [Sulfanilamide], the inhibition at 100 µM was 19.9%.

With `Nc1ccc(S(=O)(=O)Nc2ccccn2)cc1` [Sulfapyridine], the inhibition at 100 µM was determined as 10.7%.

As for `N[C@@H](CCC(=O)N[C@@H](CS)C(=O)NCC(=O)O)C(=O)O` [Glutathione], the inhibition at 100 µM was 0%.

Consider `C#Cc1cccc(Nc2ncnc3cc4c(cc23)OCCOCCOCCO4)c1` [Icotinib], for which the inhibition at 100 µM came to 15.2%.

For `CCOC(=O)[C@H](CCc1ccccc1)N[C@H]1CCc2ccccc2N(CC(=O)O)C1=O` [Benazepril HCl], the inhibition at 100 µM amounted to 0%.

Regarding `CCCCCCCC(=O)N[C@H](CN1CCCC1)[C@H](O)c1ccc2c(c1)OCCO2` [Eliglustat], the inhibition at 100 µM was determined as 2.49%.

Take `CC(C)n1c(/C=C/[C@@H](O)C[C@@H](O)CC(=O)O)c(-c2ccc(F)cc2)c2ccccc21` (racemic) [Fluvastatin Sodium]: the inhibition at 100 µM stood at 30%.

As to `C[C@H](Oc1cc(-c2cnn(C3CCNCC3)c2)cnc1N)c1c(Cl)ccc(F)c1Cl` [(S)-crizotinib], the inhibition at 100 µM turned out to be 4.9%.

On to `Oc1ccc(/C=C/c2cc(O)cc(O)c2)cc1` [Resveratrol], for which the inhibition at 100 µM is 0%.

Consider `CC(C)[C@H]1CC[C@H](C(=O)N[C@H](Cc2ccccc2)C(=O)O)CC1` [Nateglinide], for which the inhibition at 100 µM was 0%.

Consider `CO[C@H]1/C=C/O[C@@]2(C)Oc3c(C)c(O)c4c(O)c(c(/C=N/N5CCN(C)CC5)c(O)c4c3C2=O)NC(=O)/C(C)=C\C=C\[C@H](C)[C@H](O)[C@@H](C)[C@@H](O)[C@@H](C)[C@H](OC(C)=O)[C@@H]1C` [Rifampin], for which the inhibition at 100 µM turned out to be 31.3%.

As to `CCCc1cc(=O)[nH]c(=S)[nH]1` [Propylthiouracil], the inhibition at 100 µM turned out to be 11.2%.

As for `Cc1c(Cl)cccc1Nc1ccccc1C(=O)O` [Tolfenamic Acid], the inhibition at 100 µM amounted to 16.4%.

For the compound `N#C[C@@H]1C[C@@H]2C[C@@H]2N1C(=O)[C@@H](N)C12CC3CC(CC(O)(C3)C1)C2` [Saxagliptin hydrate], the inhibition at 100 µM was determined as 8.79%.

Turning to `C[C@H](CCC(=O)O)[C@H]1CC[C@H]2[C@@H]3CC[C@@H]4C[C@H](O)CC[C@]4(C)[C@H]3CC[C@]12C` [Lithocholic acid], the inhibition at 100 µM worked out at 0%.

With `CN1CCCC(n2nc(Cc3ccc(Cl)cc3)c3ccccc3c2=O)CC1` (stereo not shown) [Azelastine HCl], the inhibition at 100 µM was 20.2%.

On to `CN(CCOc1ccc(NS(C)(=O)=O)cc1)CCc1ccc(NS(C)(=O)=O)cc1` [Dofetilide], for which the inhibition at 100 µM came out at 8.13%.

`CC[C@H](c1ccc(O)cc1)[C@@H](CC)c1ccc(O)cc1` [Hexestrol]: the inhibition at 100 µM worked out at 0%.

As for `Cc1cc(Nc2cc(CN3CCOCC3)c3nc(C)c(Cc4ccc(Cl)cc4F)n3n2)n[nH]1` [Gandotinib (LY2784544)], the inhibition at 100 µM is 0%.

In the case of `CC(C)[N+]1(C)[C@@H]2CC[C@H]1C[C@@H](OC(=O)C(CO)c1ccccc1)C2` (stereo partly shown) [Ipratropium Bromide], the inhibition at 100 µM amounted to 9.25%.

Consider `CC(C)Oc1ccc(-c2nc(-c3cccc4c3CC[C@@H]4NCCO)no2)cc1C#N` [Ozanimod (RPC1063)], for which the inhibition at 100 µM worked out at 0%.

With `C[C@]12CC[C@@H]3c4ccc(O)cc4C[C@@H](CCCCCCCCC[S+]([O-])CCCC(F)(F)C(F)(F)F)[C@H]3[C@@H]1CC[C@@H]2O` (stereo partly shown) [Fulvestrant], the inhibition at 100 µM came out at 1.46%.

For `Cc1cc(C)c2c(c1)[C@@H](N(Cc1cc(C(F)(F)F)cc(C(F)(F)F)c1)c1nnn(C)n1)CCCN2C[C@H]1CC[C@H](C(=O)O)CC1` [Evacetrapib (LY2484595)], the inhibition at 100 µM is 28.7%.

For `c1ccc(CC2=NCCN2)cc1` [Tolazoline HCl], the inhibition at 100 µM was found to be 7.01%.

`Cc1nccn1CCC(C(N)=O)(c1ccccc1)c1ccccc1` [Imidafenacin]: the inhibition at 100 µM came to 8.33%.

For the compound `O=P(O)(O)C(O)(Cc1cccnc1)P(=O)(O)O` [Risedronate Sodium], the inhibition at 100 µM was 8.32%.

Consider `CO/N=C(\C(=O)N[C@@H]1C(=O)N2C(C(=O)[O-])=C(C[n+]3ccn4ncccc43)CS[C@H]12)c1nsc(N)n1` [Cefozopran hydrochloride], for which the inhibition at 100 µM was 8.9%.

As for `C[C@@H]1[C@H](O)[C@@H](C)/C=C/C=C/C=C/C=C/C=C/C=C/C=C/[C@H](O[C@@H]2O[C@H](C)[C@@H](O)[C@H](N)[C@@H]2O)C[C@@H]2O[C@](O)(C[C@@H](O)C[C@@H](O)[C@H](O)CC[C@@H](O)C[C@@H](O)CC(=O)O[C@H]1C)C[C@H](O)[C@H]2C(=O)O` [Amphotericin B], the inhibition at 100 µM came out at 2.16%.

In the case of `CN(Cc1ccc(C(C)(C)C)cc1)Cc1cccc2ccccc12` [Butenafine HCl], the inhibition at 100 µM amounted to 0%.

As for `Nc1ccc(C(=O)O)c(O)c1` [Sodium 4-Aminosalicylate], the inhibition at 100 µM is 0%.
